Experimental findings from patent publication US11439622B2 (OXFORD UNIVERSITY INNOVATION LIMITED, priority 2015, dated 2022) are described below.

What all share (assay type): biochemical
One assay deals with IMP-1 (Imipenemase-1) (Serratia marcescens, UniProt P52699). Nature of the assay: Enzyme inhibition assay, IMP-1. Particulars: for IC50: read-out: pIC50 IMP-1 (converted). The method, then: (§1) The biological activity of the compounds of the present invention was tested using standard assay protocols.^7 The following representative enzymes NDM-1 (New Delhi metallo-β-lactamase-1), IMP-1 (Imipenemase-1) and VIM-2 (Veronese metallo-β-lactamase-2) were selected from different clinically relevant B1 metallo-β-lactamases.

The target of assay [1] is NDM-1 (New Delhi metallo-β-lactamase-1) (Klebsiella pneumoniae, UniProt C7C422). Nature of the assay: Enzyme inhibition assay, NDM-1. Conditions: for IC50: read-out: pIC50 NDM-1 (converted). The method, then: as §1
In assay [2] the target is VIM-2 (Veronese metallo-β-lactamase-2) (Escherichia coli, UniProt Q5U7L7). In words: Enzyme inhibition assay, VIM-2. Particulars: for IC50: read-out: pIC50 VIM-2 (converted). On the procedure: as §1

Chain of IMP-1 (Imipenemase-1) (P52699 19-246, looked up, species assumed): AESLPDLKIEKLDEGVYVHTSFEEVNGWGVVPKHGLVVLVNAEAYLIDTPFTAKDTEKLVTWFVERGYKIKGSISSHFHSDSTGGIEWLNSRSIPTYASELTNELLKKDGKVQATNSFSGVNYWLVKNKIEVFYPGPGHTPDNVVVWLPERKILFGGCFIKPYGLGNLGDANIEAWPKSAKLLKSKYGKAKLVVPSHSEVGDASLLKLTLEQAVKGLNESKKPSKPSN
Chain of NDM-1 (New Delhi metallo-β-lactamase-1) (C7C422 29-270, looked up, species assumed): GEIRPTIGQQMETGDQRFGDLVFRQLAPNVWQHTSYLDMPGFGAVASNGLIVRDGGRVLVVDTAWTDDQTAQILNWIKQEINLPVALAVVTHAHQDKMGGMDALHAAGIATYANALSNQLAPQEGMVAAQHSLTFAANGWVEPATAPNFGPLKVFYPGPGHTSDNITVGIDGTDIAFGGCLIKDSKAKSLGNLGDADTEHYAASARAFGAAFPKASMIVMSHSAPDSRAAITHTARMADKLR

As to `Cc1cccc2c(-c3ccc(N4CCOCC4)cc3)c(C(=O)O)[nH]c12` [Example 13, 7-methyl-3-(4-morpholinophenyl)-1H-indole-2-carboxylic acid], the IC50 at IMP-1 (Imipenemase-1) was 10000 nM; in assay [1], 12.6 nM; in assay [2] it was 1580 nM.

In the case of `CC(C)c1cccc2c(-c3ccc(Cl)cc3)c(C(=O)O)[nH]c12` [Example 71, 3-(4-chlorophenyl)-7-isopropyl-1H-indole-2-carboxylic acid], the IC50 is 39.8 nM at IMP-1 (Imipenemase-1), 3.98 nM in assay [1] and 20 nM in assay [2].

On to `Cc1cccc2c(-c3cccc4[nH]ncc34)c(C(=O)O)[nH]c12` [Example 31, 3-(1H-indazol-4-yl)-7-methyl-1H-indole-2-carboxylic acid], for which the figures for the IC50 (on IMP-1 (Imipenemase-1); in assay [1]; in assay [2]) were 63100 nM, 63.1 nM and 39.8 nM, respectively.

For the molecule `Cc1cccc2c(-c3ccccc3C#N)c(C(=O)O)[nH]c12` [Example 28, 3-(2-cyanophenyl)-7-methyl-1H-indole-2-carboxylic acid], the IC50 at IMP-1 (Imipenemase-1) is 25100 nM; in assay [1] it was 63.1 nM; in assay [2], 316 nM.

Turning to `O=C(O)c1[nH]c2ccccc2c1-c1ccccc1` [Example 109, 3-phenyl-1H-indole-2-carboxylic acid], the IC50 in assay [1] was 3160 nM.

Turning to `CC(C)NC(=O)c1[nH]c2c(C(C)C)cccc2c1-c1ccc(S(=O)(=O)N(C)C)cc1` [Example 123, 3-(4-(N,N-dimethylsulfamoyl)phenyl)-N,7-diisopropyl-1H-indole-2-carboxamide], the “pIC50 IMP-1” value at IMP-1 (Imipenemase-1) is “N.I”. Further, the “pIC50 NDM-1” value in assay [1] is recorded as “N.I”. In addition, in assay [2], the “pIC50 VIM-2” value is given as “N.I”.

Turning to `CC(C)c1cccc2c(-c3ccc(CNS(C)(=O)=O)cc3)c(C(=O)O)[nH]c12` [Example 96, 7-isopropyl-3-(4-(methylsulfonamidomethyl)phenyl)-1H-indole-2-carboxylic acid], the IC50 was 7.76 nM at IMP-1 (Imipenemase-1) and 3.98 nM in assay [1].

For the molecule `Cc1ccc2[nH]c(C(=O)O)c(-c3ccc(F)cc3)c2c1` [Example 121, 3-(4-fluorophenyl)-5-methyl-1H-indole-2-carboxylic acid], the IC50 in assay [1] is 6310 nM; in assay [2] it was 39800 nM.

Take `Cc1cc(F)cc2c(-c3ccc(F)cc3)c(C(=O)O)[nH]c12` [Example 58, 5-fluoro-3-(4-fluorophenyl)-7-methyl-1H-indole-2-carboxylic acid]: the IC50 is 15800 nM at IMP-1 (Imipenemase-1), 31.6 nM in assay [1] and 794 nM in assay [2].

For the molecule `CC(C)c1cccc2c(-c3ccc(CN(C)C)cc3)c(C(=O)O)[nH]c12` [Example 97, 3-(4-((dimethylamino)methyl)phenyl)-7-isopropyl-1H-indole-2-carboxylicacid], the results for the IC50 (at IMP-1 (Imipenemase-1); in assay [1]) were 437 nM and 10 nM, respectively.

For the molecule `CC(C)c1cccc2c(-c3ccc(N4CCOCC4)nc3)c(C(=O)O)[nH]c12` [Example 98, 7-isopropyl-3-(6-morpholinopyridin-3-yl)-1H-indole-2-carboxylic acid], the IC50 at IMP-1 (Imipenemase-1) is 219 nM; in assay [1], 6.76 nM.

For `CC(C)c1cccc2c(-c3ccc(S(=O)(=O)N4CCOCC4)cc3)c(C(=O)O)[nH]c12` [Example 95, 7-isopropyl-3-(4-(morpholinosulfonyl)phenyl)-1H-indole-2-carboxylicacid], the IC50 on IMP-1 (Imipenemase-1) is 24 nM; in assay [1], 2.69 nM.

Consider `Cc1cccc2c(-c3ccccc3Cl)c(C(=O)O)[nH]c12` [Example 39, 3-(2-chlorophenyl)-7-methyl-1H-indole-2-carboxylic acid], for which the IC50 in assay [1] and in assay [2] was 126 nM each time.

Take `CC(C)c1cccc2c(-c3ccc(S(=O)(=O)N(C)C)cc3)c(C#N)[nH]c12` [Example 126, 4-(2-cyano-7-isopropyl-1H-indol-3-yl)-N,N-dimethylbenzenesulfonamide]: in assay [1], the “pIC50 NDM-1” value is recorded as “N.I”.

Consider `Cc1cccc2c(-c3ccc(Cl)cc3)c(C(=O)O)n(C)c12` [Example 35, 3-(4-chlorophenyl)-1,7-dimethyl-indole-2-carboxylic acid], for which the IC50 in assay [1] was 501 nM.

As to `CC(=O)NCc1ccc(-c2c(C(=O)O)[nH]c3c(C(C)C)cccc23)cc1` [Example 90, 3-(4-(acetamidomethyl)phenyl)-7-isopropyl-1H-indole-2-carboxylic acid], the IC50 is 61.7 nM at IMP-1 (Imipenemase-1) and 12.6 nM in assay [1].

Consider `CC(C)c1cccc2c(-c3ccc(Cn4cnnn4)cc3)c(C(=O)O)[nH]c12` [Example 100, 3-(4-((1H-tetrazol-1-yl)methyl)phenyl)-7-isopropyl-1H-indole-2-carboxylic acid], for which the IC50 was 22.4 nM on IMP-1 (Imipenemase-1) and 15.8 nM in assay [1].

Consider `Cc1ccc(-c2c(C(=O)O)[nH]c3c(C(C)C)cccc23)s1` [Example 89, 7-isopropyl-3-(5-methylthiophen-2-yl)-1H-indole-2-carboxylic acid], for which the IC50 at IMP-1 (Imipenemase-1) is 21.4 nM; in assay [1], 26.9 nM.

`Cc1cccc2c(Br)c(C(=O)O)[nH]c12` [Example 115, 3-bromo-7-methyl-1H-indole-2-carboxylic acid]: the IC50 in assay [1] is 1580 nM.

As for `O=C(O)c1[nH]c2c(C(F)(F)F)cccc2c1-c1ccc(F)cc1` [Example 51, 3-(4-fluorophenyl)-7-(trifluoromethyl)-1H-indole-2-carboxylic acid], the IC50 at IMP-1 (Imipenemase-1) is 2000 nM; in assay [1], 251 nM.

Consider `Cc1cccc2cc(C(=O)O)[nH]c12` [Example 114, 7-methyl-1H-indole-2-carboxylic acid], for which, in assay [1], the IC50 is 3160 nM.

As to `Cc1cccc2c(C3CCNCC3)c(C(=O)O)[nH]c12` [Example 118, 7-methyl-3-(piperidin-4-yl)-1H-indole-2-carboxylic acid], the IC50 at IMP-1 (Imipenemase-1) is above 100000 nM; in assay [1], 15800 nM.

Take `CNC(=O)c1[nH]c2c(C(C)C)cccc2c1-c1ccc(S(=O)(=O)N(C)C)cc1` [Example 122, 3-(4-(N,N-dimethylsulfamoyl)phenyl)-7-isopropyl-N-methyl-1H-indole-2-carboxamide]: the IC50 (on IMP-1 (Imipenemase-1); in assay [2]) was above 20000 nM throughout.

For `CNC(=O)c1ccc(-c2c(C(=O)O)[nH]c3c(C(C)C)cccc23)cc1` [Example 87, 7-isopropyl-3-(4-(methylcarbamoyl)phenyl)-1H-indole-2-carboxylic acid], the figures for the IC50 (on IMP-1 (Imipenemase-1); in assay [1]) were 77.6 nM and 12.6 nM, respectively.

Consider `CN(C)S(=O)(=O)c1ccc(-c2c(C(=O)O)[nH]c3c(C(C)(C)C)cccc23)cc1` [Example 93, 7-(tert-butyl)-3-(4-(N,N-dimethylsulfamoyl)phenyl)-1H-indole-2-carboxylic acid], for which the IC50 at IMP-1 (Imipenemase-1) was 85.1 nM; in assay [1] it was 79.4 nM.

Regarding `CC(C)c1cccc2c(-c3ccc(S(=O)(=O)N(C)C)cc3)c(C(N)=O)[nH]c12` [Example 125, 3-(4-(N,N-dimethylsulfamoyl)phenyl)-7-isopropyl-1H-indole-2-carboxamide], the “pIC50 NDM-1” value in assay [1] is “N.I”.

For the molecule `CC(C)c1cccc2c(-c3ccc(S(=O)(=O)N(C)C)cc3)c(C(=O)Nc3ncco3)[nH]c12` [Example 128, 3-(4-(N,N-dimethylsulfamoyl)phenyl)-7-isopropyl-N-(oxazol-2-yl)-1H-indole-2-carboxamide], the IC50 in assay [1] is 214 nM.

As for `O=C(O)c1[nH]c2c(F)cccc2c1-c1ccc(F)cc1` [Example 112, 7-fluoro-3-(4-fluorophenyl)-1H-indole-2-carboxylic acid], the values for the IC50 in assay [1] and in assay [2] were 1580 nM and 7940 nM, respectively.

Take `CC(C)c1cccc2c(-c3ccc(C(=O)N(C)C)cc3Cl)c(C(=O)O)[nH]c12` [Example 101, 3-(2-chloro-4-(dimethylcarbamoyl)phenyl)-7-isopropyl-1H-indole-2-carboxylic acid]: the IC50 on IMP-1 (Imipenemase-1) is 1550 nM; in assay [1] it was 15.8 nM.

As to `Cc1cccc2c(-c3cccc(S(N)(=O)=O)c3)c(C(=O)O)[nH]c12` [Example 14, 7-methyl-3-(3-sulfamoylphenyl)-1H-indole-2-carboxylic acid], the values for the IC50 in assay [1] and in assay [2] were 50.1 nM and 794 nM, respectively.

For `CC(C)c1cccc2c(-c3ccc(S(=O)(=O)N4CCCC4)cc3)c(C(=O)O)[nH]c12` [Example 99, 7-isopropyl-3-(4-(pyrrolidin-1-ylsulfonyl)phenyl)-1H-indole-2-carboxylic acid], the IC50 is 8.32 nM on IMP-1 (Imipenemase-1) and 0.851 nM in assay [1].

`CN(C)C(=O)c1ccc(-c2c(C(=O)O)[nH]c3c(C(C)(C)C)cccc23)cc1` [Example 92, 7-(tert-butyl)-3-(4-(dimethylcarbamoyl)phenyl)-1H-indole-2-carboxylic acid]: the IC50 was 79.4 nM at IMP-1 (Imipenemase-1) and 53.7 nM in assay [1].

For `Cc1cccc2c(I)c(C(=O)O)[nH]c12` [Example 46, 3-iodo-7-methyl-1H-indole-2-carboxylic acid], the IC50 in assay [1] was 631 nM.

Take `Cc1cccc2c(-c3ccc(F)cc3)c(C(=O)NNc3ccc(S(C)(=O)=O)cc3)[nH]c12` [Example 110, 3-(4-fluorophenyl)-7-methyl-N′-(4-(methylsulfonyl)phenyl)-1H-indole-2-carbohydrazide]: the IC50 in assay [1] was 2000 nM.

`CS(=O)(=O)c1ccc(NNC(=O)c2[nH]c3ccccc3c2-c2ccccc2)cc1` [Example 113, N′-(4-(methylsulfonyl)phenyl)-3-phenyl-1H-indole-2-carbohydrazide]: the IC50 in assay [1] was 7940 nM.

`Cc1cccc2c(C3=CCCC3)c(C(=O)O)[nH]c12` [Example 27, 3-(cyclopent-1-en-1-yl)-7-methyl-1H-indole-2-carboxylic acid]: in assay [1], the IC50 was 79.4 nM.

Turning to `Cc1cc(C)cc(-c2c(C(=O)O)[nH]c3c(C)cccc23)c1` [Example 38, 3-(3,5-dimethylphenyl)-7-methyl-1H-indole-2-carboxylic acid], the values for the IC50 in assay [1] and in assay [2] were 39.8 nM and 158 nM, respectively.
